Measured values: article PMC6214909, “An asparagine/glycine switch governs product specificity of human N-terminal methyltransferase NTMT2” (Communications Biology, 2018)
Entries after “also recorded” stand apart in the source; their conditions may differ. Where two headings read alike, the source gives them in different places. Square brackets hold non-standard residues; d marks the D form. Ends that are not written are not given here. Peptide text beside a SMILES is read from it. NMeS = CN[C@@H](CO)C(=O)O; NMeA = CN[C@@H](C)C(=O)O

Tests used:
NTMT2 [1] = molecular target: T1, NTMT2 (Homo sapiens, UniProt Q5VVY1); test: Isothermal titration calorimetry, wild-type NTMT2 and peptide; format: binding
T1 construct: DNA encoding human NTMT2 (residues 58–278) was amplified by PCR; SUMO (His8-SUMO of the pET28-MKH8SUMO vector, with TEV site) (N, cleaved yes); made in house; host or cells: Escherichia coli BL21 (DE3)
T1 sequence (Q5VVY1 58-278): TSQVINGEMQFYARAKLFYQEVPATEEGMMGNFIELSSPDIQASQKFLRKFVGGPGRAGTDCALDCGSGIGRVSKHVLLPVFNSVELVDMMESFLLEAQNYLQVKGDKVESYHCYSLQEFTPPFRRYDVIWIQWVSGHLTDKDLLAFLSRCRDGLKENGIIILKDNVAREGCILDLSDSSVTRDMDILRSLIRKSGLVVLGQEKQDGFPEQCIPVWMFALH
Experimental: ITC measurements were performed in 20 mM Tris–HCl pH 7.5, 150 mM NaCl and 0.5 mM TCEP at 25 °C using MicroCal VP-ITC instrument. The final concentrations of protein and peptide were 50–80 μM and 0.6–1.2 mM, respectively. The peptide was titrated into the protein solution with 26 injections of 10 μL each. Injections were spaced 180 s with a reference power of 15 μcal s^−1. The ITC data were processed using Origin software.

RCC1 (Homo sapiens) = conditions: cited from earlier work
NTMT2 [2] = molecular target: T1, NTMT2; test: MALDI-MS methyltransferase activity assay, NTMT2; format: biochemical; conditions: 2 μM NTMT2, 10 μM peptide, 200 μM SAM, 25 mM Tris–HCl pH 7.5, 50 mM KCl, 37 °C, overnight
Experimental: (§1) A mixture (36 μL) of 2 μM enzyme (NTMT1 or NTMT2), 25 mM Tris–HCl pH 7.5, 50 mM KCl and 200 μM SAM was incubated at 37 °C for 5 min. 4 μL of 100 μM peptide substrate (final concentration 10 μM) was then added to initiate the reaction. The reaction was incubated overnight and then stopped with quenching solution (20 mM NH4H2PO4, 0.4% (v/v) TFA in 1:1 acetonitrile/water). Reaction mixtures were analyzed with an Applied Biosystems Voyager matrix-assisted laser desorption/ionization time-of-flight mass spectrometer. Processing of all spectra results in Data Explorer included application of a noise filter (correlation factor of 1.0) and a baseline correction. Areas of the monoisotopic peaks for all relevant species were combined to obtain a total area for each sample. The fraction of each methylation state was calculated by summing the areas of all the monoisotopic peaks for that state ([M + H]^+, [M + Na]^+, [M + K]^+, [M – H + 2Na]^+, [M – H + 2 K]^+, and [M – H + Na + K]^+) and then dividing by the total area.

NTMT1 = test: MALDI-MS methyltransferase activity assay, NTMT1; format: biochemical, human; conditions: 2 μM NTMT1, 10 μM peptide, 200 μM SAM, 25 mM Tris–HCl pH 7.5, 50 mM KCl, 37 °C, overnight
Experimental: as §1

NTMT2-N89G mutant = test: MALDI-MS methyltransferase activity assay, NTMT2-N89G mutant; format: biochemical, human; conditions: NTMT2-N89G under the same conditions (2 μM enzyme, 10 μM peptide, 200 μM SAM, pH 7.5, 37 °C, overnight)
Experimental: as §1

[3] = molecular target: T2, NTMT2 (residues 58–278) N89G mutant (human, UniProt Q5VVY1 58-278, N89G); test: ITC; peptide (0.6–1.2 mM) titrated into protein (50–80 μM); 20 mM Tris–HCl pH 7.5, 150 mM NaCl, 0.5 mM TCEP, 25 °C; MicroCal VP-ITC; conditions: both partners purified
T2 construct: N-terminal methyltransferase NTMT2 (METTL11B/NRMT2), human, residues 58-278; also called NTMT2-N89G; source: E. coli BL21 (DE3), purified with the same protocol as wild type; not shown: SUMO, N-terminal, cleaved
T2 sequence (Q5VVY1 58-278 N89G): as the sequence (Q5VVY1 58-278) above, with N32G counted along it

[4] = ITC, wild-type NTMT2, 20 mM Tris–HCl pH 7.5, 150 mM NaCl, 0.5 mM TCEP, 25 °C, ND = no detectable binding

Molecule: CC[C@H](C)[C@H](NC(=O)[C@H](CCCNC(=N)N)NC(=O)[C@H](CCCCN)NC(=O)[C@@H]1CCCN1C(=O)[C@H](C)NC)C(=O)N[C@@H](C)C(=O)O [Ame1PKRIA] (H-[NMeA]PKRIA-OH)
- Kd (NTMT2 [1]; [4]): no detectable binding; also recorded: does not bind

Molecule: CC[C@H](C)[C@H](NC(=O)[C@H](CCCNC(=N)N)NC(=O)[C@H](CCCCN)NC(=O)[C@@H]1CCCN1C(=O)[C@H](CO)NC)C(=O)N[C@@H](C)C(=O)O [Sme1PKRIA] (H-[NMeS]PKRIA-OH)
- Kd (NTMT2 [1]; [4]): barely demonstrated any binding affinity; also recorded: does not bind

Molecule: NTMT1 (from UniProt Q9BV86)
- Kd (RCC1 (Homo sapiens)): 0.8 µM

Molecule: SPKRIA [SPKRIA]
- Kd (NTMT2 [1]; read-out: Kd): 18 µM
- Di-methylated fraction (NTMT2 [2]): 0.00%
- Mono-methylated fraction (NTMT2 [2]): 46.39%
- Trimethylated fraction (NTMT2 [2]): 0.00%
- Unmethylated fraction (NTMT2 [2]): 53.61%

Molecule: WPKRIA [synthetic XPKRIA hexapeptide substrate, X = W]
- Di-methylated fraction (NTMT1): 17.46%
- Mono-methylated fraction (NTMT1): 67.03%
- Trimethylated fraction (NTMT1): 0.00%
- Unmethylated fraction (NTMT1): 15.51%
- Di-methylated fraction (NTMT2-N89G mutant): 0.00%
- Mono-methylated fraction (NTMT2-N89G mutant): 100.00%
- Trimethylated fraction (NTMT2-N89G mutant): 0.00%
- Unmethylated fraction (NTMT2-N89G mutant): 0.00%
- Di-methylated fraction (NTMT2 [2]): 0.00%
- Mono-methylated fraction (NTMT2 [2]): 36.35%
- Trimethylated fraction (NTMT2 [2]): 0.00%
- Unmethylated fraction (NTMT2 [2]): 63.65%

Molecule: YPKRIA [synthetic XPKRIA hexapeptide substrate, X = Y]
- Di-methylated fraction (NTMT1): 100.00%
- Mono-methylated fraction (NTMT1): 0.00%
- Trimethylated fraction (NTMT1): 0.00%
- Unmethylated fraction (NTMT1): 0.00%
- Di-methylated fraction (NTMT2-N89G mutant): 0.00%
- Mono-methylated fraction (NTMT2-N89G mutant): 87.50%
- Trimethylated fraction (NTMT2-N89G mutant): 0.00%
- Unmethylated fraction (NTMT2-N89G mutant): 12.50%
- Di-methylated fraction (NTMT2 [2]): 0.00%
- Mono-methylated fraction (NTMT2 [2]): 23.72%
- Trimethylated fraction (NTMT2 [2]): 0.00%
- Unmethylated fraction (NTMT2 [2]): 76.28%

B1: Sme1PKRIA peptide (methylated SPKRIA) (peptide)
peptide: [NMeS]PKRIA
notes: N-terminal hexapeptide of regulator of chromatin condensation 1 (RCC1), without the initiator methionine, alpha-N-monomethylated; also called mono-methylated SPKRIA
- Kd [3]: 36 µM

B2: Ame1PKRIA peptide (peptide)
peptide: [NMeA]PKRIA
notes: XPKRIA peptide derived from the RCC1 N-terminal hexapeptide SPKRIA, with alanine at the first position, alpha-N-monomethylated; also called mono-methylated APKRIA
- Kd [3]: 32 µM
